We go through 28 compounds from patent US11236068B2, “Fused ring compounds” (Genentech, Inc., priority 2018, dated 2022).

Each structure is given as a SMILES string.

The target of this assay is K-Ras G12C (Homo sapiens (Human), UniProt P01116, G12C). The experiment in a line: Western blot assay for in cell alkylation of K-Ras G12C (HCC1171 cells). The format is cell-based. Particulars: 18 hours at 37° C., 7 point dose response. The protocol: HCC1171 cells were maintained in RPMI1640 supplemented with 10% FBS. Cells were plated in a 96-well plate at 20,000 cells/well and the following day compounds were added to the cells. After 18 hours at 37° C., cells were lysed in RIPA buffer (Sigma RO278) with 0.5% SDS and protease/phosphatase inhibitor cocktail. After through mixing to enable complete lysis, the lysates were cleared by centrifugation before 20 µl was transferred from each well and combined with loading buffer and reducing agent. After heating for 10 minutes at 95° C., […] of each sample was loaded onto a 4-20% Tris-Glycine gel and electrophoresed at 110V for 165 minutes in SDS-PAGE running buffer. Gels were transferred to a nitrocellulose membrane, blocked for 1 hour and stained overnight at 4° C. with primary antibody against K-Ras (polyclonal Proteintech 12063-1-AP). The membrane was then washed thoroughly and counterstained with anti-rabbit IRDye 800CW (LI-COR 926-32211) for one hour at room temperature. After final washes, the membrane was imaged on a LI-COR Odyssey CLx at medium resolution. […] To quantify this affect, the LICOR software was used to draw a rectangle over alkylated and unalkylated bands for each well and measured the total fluorescent intensity (FI) in each of these bands. The following formula was then used to calculate % alkylation: FI(alkylated)/(FI(alkylated)+FI(unalkylated))*100 for each well.
Sequence of K-Ras G12C (P01116 other isoform, or with tags, fused parts or gaps G12C): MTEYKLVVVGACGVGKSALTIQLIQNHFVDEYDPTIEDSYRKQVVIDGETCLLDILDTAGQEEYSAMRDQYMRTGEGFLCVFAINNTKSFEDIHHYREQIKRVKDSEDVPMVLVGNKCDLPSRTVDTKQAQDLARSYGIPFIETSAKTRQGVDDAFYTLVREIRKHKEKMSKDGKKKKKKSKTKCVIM
A 7 point dose response curve was used to determine the IC50 for each compound. Cell alkylation data are presented below in Table 3.
In the case of `C=CC(=O)N1CCN(c2ncnc3cc(-c4nc(N)ccc4C(F)(F)F)c(C(C)(F)F)cc23)CC1` [Example 21, 1-(4-(7-(6-amino-3-(trifluoromethyl)pyridin-2-yl)-6-(1,1-difluoroethyl)quinazolin-4-yl)piperazin-1-yl)prop-2-en-1-one], the EC50 (commonly the concentration at which the effect is half-maximal) was determined as 2.8 µM.
As for `C=CC(=O)N1CCC(C#N)(c2ncnc3cc(-c4nc(N)cc(C)c4C(F)(F)F)c(Cl)cc23)CC1` [Example 22, 4-[7-[6-amino-4-methyl-3-(trifluoromethyl)-2-pyridyl]-6-chloro-quinazolin-4-yl]-1-prop-2-enoyl-piperidine-4-carbonitrile], the response was half-maximal at 2.9 µM (EC50).
In turn, `Cc1cc(N)nc(-c2cc3ncnc(N4CCN(C(=O)C5=CCC5)C(C#N)C4)c3cc2Cl)c1C(F)(F)F` (stereo not shown) [Example 23, 4-[7-[6-amino-4-methyl-3-(trifluoromethyl)-2-pyridyl]-6-chloro-quinazolin-4-yl]-1-(cyclobutene-1-carbonyl)piperazine-2-carbonitrile] returned an EC50 of 0.91 µM.
Compound `Cc1cc(N)nc(-c2cc3ncnc(N4CCN(C(=O)C5CO5)C(C#N)C4)c3cc2Cl)c1C(F)(F)F` (stereo not shown) [Example 24, 4-[7-[6-amino-4-methyl-3-(trifluoromethyl)-2-pyridyl]-6-chloro-quinazolin-4-yl]-1-(oxirane-2-carbonyl)piperazine-2-carbonitrile] showed an EC50 of 6.3 µM.
As for `C=CC(=O)N1CCN(c2ncnc3cc(-c4nc(N)ccc4C(F)(F)F)c(Cl)cc23)CC1C(F)(F)F` (stereo not shown) [Example 25, 1-[4-[7-[6-amino-3-(trifluoromethyl)-2-pyridyl]-6-chloro-quinazolin-4-yl]-2-(trifluoromethyl)piperazin-1-yl]prop-2-en-1-one], it took 4.2 µM to reach a half-maximal effect (EC50). Against the preceding compound, the EC50 is about 1.5-fold lower.
Turning to `C=C(F)C(=O)N1CCN(c2ncnc3cc(-c4nc(N)cc(C)c4C(F)(F)F)c(Cl)cc23)CC1` [Example 26, 1-(4-[7-[6-amino-4-methyl-3-(trifluoromethyl)pyridin-2-yl]-6-chloroquinazolin-4-yl]piperazin-1-yl)-2-fluoroprop-2-en-1-one], the EC50 worked out at 0.14 µM.
`C=CC(=O)N1CCN(c2ncnc3c(F)c(-c4nc(N)cc5cccc(F)c45)c(Cl)cc23)CC1` [Example 27, 1-[4-[7-(3-amino-8-fluoro-1-isoquinolyl)-6-chloro-8-fluoro-quinazolin-4-yl]piperazin-1-yl]prop-2-en-1-one]: a half-maximal effect (EC50) was put at 0.14 µM.
On to `C=CC(=O)N1CCN(c2ncnc3cc(-c4nc(N)ccc4C(F)(F)F)c(C4CC4)cc23)CC1` [Example 29, 1-[4-[7-[6-amino-3-(trifluoromethyl)-2-pyridyl]-6-cyclopropyl-quinazolin-4-yl]piperazin-1-yl]prop-2-en-1-one], for which the EC50 is 0.83 µM.
In turn, `C=CC(=O)N1CCN(c2nc(C(F)(F)F)nc3cc(-c4nc(N)cc(C)c4C(F)(F)F)c(Cl)cc23)CC1` [Example 30, 1-(4-[7-[6-amino-4-methyl-3-(trifluoromethyl)pyridin-2-yl]-6-chloro-2-(trifluoromethyl)quinazolin-4-yl]piperazin-1-yl)prop-2-en-1-one] yielded an EC50 of 7.8 µM.
To `C=CC(=O)N1CCN(c2nc(NC)nc3cc(-c4nc(N)cc(C)c4C(F)(F)F)c(Cl)cc23)CC1` [Example 31, 1-(4-[7-[6-amino-4-methyl-3-(trifluoromethyl)pyridin-2-yl]-6-chloro-2-(methylamino)quinazolin-4-yl]piperazin-1-yl)prop-2-en-1-one] belongs 0.2 µM.
As to `C=CC(=O)N1CCN(c2nc(C)nc3cc(-c4nc(N)cc(C)c4C(F)(F)F)c(Cl)cc23)CC1` [Example 32, 1-(4-[7-[6-amino-4-methyl-3-(trifluoromethyl)pyridin-2-yl]-6-chloro-2-methylquinazolin-4-yl]piperazin-1-yl)prop-2-en-1-one], the concentration giving a half-maximal response (EC50) amounted to 0.2 µM.
As for `C=CC(=O)N1CCN(c2ncnc3cc(-c4nc(N)cc(C(F)(F)F)c4C)c(Cl)cc23)CC1` [Example 33, 1-(4-[7-[6-amino-3-methyl-4-(trifluoromethyl)pyridin-2-yl]-6-chloroquinazolin-4-yl]piperazin-1-yl)prop-2-en-1-one], the EC50 came out at 2.1 µM.
Turning to `C=CC(=O)N1CCN(c2ncnc3cc(-c4nc(N)cc(C5CC5)c4C(F)(F)F)c(Cl)cc23)CC1` [Example 34, 1-(4-(7-(6-amino-4-cyclopropyl-3-(trifluoromethyl)pyridin-2-yl)-6-chloroquinazolin-4-yl)piperazin-1-yl)prop-2-en-1-one], the EC50 amounted to 3.4 µM. This EC50 lies about 1.6-fold higher than the previous one.
The same measure for `C=CC(=O)N1CCN(c2ncnc3cc(-c4nc(N)ccc4C(F)(F)F)c(Cl)cc23)CC1` [Example 35, 1-(4-[7-[6-amino-3-(trifluoromethyl)pyridin-2-yl]-6-chloroquinazolin-4-yl]piperazin-1-yl)prop-2-en-1-one]: 0.45 µM; for `C=CC(=O)N1CCN(c2ncnc3cc(-c4nc(NC(=O)C5CC5)cc5ccccc45)c(Cl)cc23)CC1` [Example 36, N-(1-(4-(4-acryloylpiperazin-1-yl)-6-chloroquinazolin-7-yl)isoquinolin-3-yl)cyclopropanecarboxamide]: 5.5 µM.
Turning to `C=CC(=O)N1CCN(c2ncnc3cc(-c4nc(NCC#N)cc5ccccc45)c(Cl)cc23)CC1` [Example 39, 2-[(1-[6-chloro-4-[4-(prop-2-enoyl)piperazin-1-yl]quinazolin-7-yl]isoquinolin-3-yl)amino]acetonitrile], the EC50 amounted to 10 µM.
To `C=CC(=O)N1CCN(c2ncnc3cc(-c4nc(N)ccc4OC(F)(F)F)c(Cl)cc23)CC1` [Example 40, 1-(4-[7-[6-amino-3-(trifluoromethoxy)pyridin-2-yl]-6-chloroquinazolin-4-yl]piperazin-1-yl)prop-2-en-1-one] belongs 1.1 µM; to `C=CC(=O)N1CCN(c2ncnc3cc(-c4nc(N)ccc4C(F)F)c(Cl)cc23)CC1` [Example 41, 1-(4-[7-[6-amino-3-(difluoromethyl)pyridin-2-yl]-6-chloroquinazolin-4-yl]piperazin-1-yl)prop-2-en-1-one], 16 µM.
To `C=CC(=O)N1CCN(c2ncnc3cc(-c4nc(N)cc(C)c4C(F)(F)F)c(Cl)cc23)CC1` [Example 44, 1-(4-[7-[6-amino-4-methyl-3-(trifluoromethyl)pyridin-2-yl]-6-chloroquinazolin-4-yl]piperazin-1-yl)prop-2-en-1-one] belongs 0.062 µM.
In turn, `C=CC(=O)N1CCN(c2nc(NCCN(C)C)nc3cc(-c4nc(N)ccc4C(F)(F)F)c(Cl)cc23)CC1` [Example 45, 1-(4-[7-[6-amino-3-(trifluoromethyl)pyridin-2-yl]-6-chloro-2-[[2-(dimethylamino)ethyl]amino]quinazolin-4-yl]piperazin-1-yl)prop-2-en-1-one] had an EC50 of 2.4 µM.
For the compound `C=C(F)C(=O)N1CCN(c2ncnc3cc(-c4nc(N)ccc4C(F)(F)F)c(Cl)cc23)C[C@@H]1C#N` [Example 46b, (2R)-4-[7-[6-amino-3-(trifluoromethyl)pyridin-2-yl]-6-chloroquinazolin-4-yl]-1-(2-fluoroprop-2-enoyl)piperazine-2-carbonitrile], a half-maximal effect (EC50) was put at 0.27 µM.
Take `C=CC(=O)N1CCN(c2ncnc3cc(-c4nc(N)ccc4C4CC4)c(OC)cc23)CC1` [Example 47, 1-[4-[7-(6-amino-3-cyclopropylpyridin-2-yl)-6-methoxyquinazolin-4-yl]piperazin-1-yl]prop-2-en-1-one]: the midpoint of the response, the EC50, lay at 3.9 µM.
To `C=CC(=O)N1CCN(c2ncnc3cc(-c4nc(N)cc5ccc(F)cc45)c(Cl)cc23)CC1` [Example 49, 1-[4-[7-(3-amino-7-fluoroisoquinoline-1-yl)-6-chloroquinazolin-4-yl]piperazin-1-yl]prop-2-en-1-one] belongs 0.25 µM; to `C=CC(=O)N1CC(c2ncnc3cc(-c4nc(N)ccc4C(F)(F)F)c(Cl)cc23)C1` [Example 50, 1-(3-[7-[6-amino-3-(trifluoromethyl)pyridin-2-yl]-6-chloroquinazolin-4-yl]azetidin-1-yl)prop-2-en-1-one], 5.3 µM; to `C=CC(=O)N1CCN(c2ncnc3cc(-c4nc(N)ccc4CC(F)(F)F)c(Cl)cc23)CC1` [Example 51, 1-[4-[7-[6-amino-3-(2,2,2-trifluoroethyl)-2-pyridyl]-6-chloro-quinazolin-4-yl]piperazin-1-yl]prop-2-en-1-one], 2.8 µM.
Compound `C=CC(=O)N1CCN(c2ncnc3cc(-c4nc(N)cc(CC)c4C(F)(F)F)c(Cl)cc23)CC1` [Example 52, 1-[4-[7-[6-amino-4-ethyl-3-(trifluoromethyl)-2-pyridyl]-6-chloro-quinazolin-4-yl]piperazin-1-yl]prop-2-en-1-one] registered an EC50 of 0.086 µM.
The compound `C=CC(=O)N1CCN(c2ncnc3cc(-c4nc(NC)ccc4C(F)(F)F)c(Cl)cc23)CC1` [Example 53, 1-(4-[6-chloro-7-[6-(methylamino)-3-(trifluoromethyl)pyridin-2-yl]quinazolin-4-yl]piperazin-1-yl)prop-2-en-1-one] displayed an EC50 of 3.4 µM.
As for `C=CC(=O)N1CCN(c2ncnc3cc(-c4nc(N)ccc4C(F)(F)F)c(Cl)cc23)[C@@H](C)C1` [Example 54, 1-[(3S)-4-[7-[6-amino-3-(trifluoromethyl)pyridin-2-yl]-6-chloroquinazolin-4-yl]-3-methylpiperazin-1-yl]prop-2-en-1-one], the half-maximal effective concentration (EC50) was 0.14 µM. This EC50 is about 24-fold lower than that of the compound before.
